Measured values taken from patent US20230030607A1, “Novel oxygen pulse therapy method for treating COVID19 and viral, bacterial, fungal or parasitic respiratory and other diseases” (priority 2021, published 2023).
Several values for one entry are separate records, joined by “and”; a condition that tells them apart may be missing. Identical values can stand only once.

Legend:
COVID-19 [1] = details: hospitalized patients; cited from earlier work
COVID-19 [2] = details: in vivo; cited from earlier work
SARS-CoV-2 [3] = test system: SARS-CoV-2
SARS-CoV-2 [4] = details: human, in vivo

| Compound | effect on 28-day mortality or the in-hospital course of COVID-19 (COVID-19 [1]) | benefit for treatment of COVID-19 (COVID-19 [2]) | use of the therapy in respiratory diseases including SARS-COVID19 infections (SARS-CoV-2 [3]; elders, adults and children, most of them immune depressed patients) | new infection for COVID 19 at follow-up (SARS-CoV-2 [3]; human, in vivo) | time to recovery (SARS-CoV-2 [3]; human, in vivo) | infection for COVID 19 at follow-up (SARS-CoV-2 [4]) |
| --- | --- | --- | --- | --- | --- | --- |
| CCN(CCO)CCCC(C)Nc1ccnc2cc(Cl)ccc12 (stereo not shown) [hydroxychloroquine] | little or no effect | not been shown to offer any benefit |  |  |  |  |
| O=O [oxygen] |  |  | satisfactory used | no new infection for COVID 19 has developed | 5 days and 3 days | no infection for COVID 19 has been developed |
| lopinavir/ritonavir | little or no effect |  |  |  |  |  |
